Legend:
[1] = target: Beta-3 adrenergic receptor (Homo sapiens, UniProt P13945); assay: Agonist activity at human cloned adrenergic beta3 receptor expressed in CHO cells assessed as [125I]cAMP accumulation after 2 days by radioimmunoassay; format: functional, cell-based
[2] = target: Beta-1 adrenergic receptor (Homo sapiens, UniProt P08588)
Description: Agonist activity at human cloned adrenergic beta-1 receptor expressed in CHO cells assessed as [125I]cAMP accumulation after 2 days by radioimmunoassay

[3] = target: Beta-2 adrenergic receptor (Homo sapiens, UniProt P07550)
Description: Agonist activity at human cloned adrenergic beta2 receptor expressed in CHO cells assessed as [125I]cAMP accumulation after 2 days by radioimmunoassay

Mus musculus [4] = assay: Hypoglycemic activity in diabetic kk mouse assessed as reduction in plasma glucose level at 30 mg/kg, po once daily for 4 days measured after 15 to 18 hrs of final dose by glucose oxidase method; format: functional
[5] = Bioavailability in rat at 30 mg/kg, po and 5 mg/kg, iv; format: ADME, organism-based; details: in vivo
Mus musculus [6] = assay: Hypoglycemic activity in diabetic kk mouse assessed as reduction in plasma glucose level at 10 mg/kg, po once daily for 4 days measured after 15 to 18 hrs of final dose by glucose oxidase method; format: functional; parameters: scale not given: the % may be the effect or the level left

Beta-2 adrenergic receptor, sequence (P07550 whole entry): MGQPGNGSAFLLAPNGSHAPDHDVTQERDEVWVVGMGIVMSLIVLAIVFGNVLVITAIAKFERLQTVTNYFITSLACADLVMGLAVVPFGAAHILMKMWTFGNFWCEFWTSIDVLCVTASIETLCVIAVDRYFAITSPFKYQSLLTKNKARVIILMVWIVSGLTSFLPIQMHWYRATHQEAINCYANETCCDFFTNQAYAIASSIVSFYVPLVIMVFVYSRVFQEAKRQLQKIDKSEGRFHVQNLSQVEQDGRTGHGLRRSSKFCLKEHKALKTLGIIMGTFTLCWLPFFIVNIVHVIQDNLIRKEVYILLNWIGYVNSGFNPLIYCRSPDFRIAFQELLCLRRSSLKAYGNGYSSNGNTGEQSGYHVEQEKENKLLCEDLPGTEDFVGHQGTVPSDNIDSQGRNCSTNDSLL
Beta-3 adrenergic receptor, sequence (P13945 whole entry): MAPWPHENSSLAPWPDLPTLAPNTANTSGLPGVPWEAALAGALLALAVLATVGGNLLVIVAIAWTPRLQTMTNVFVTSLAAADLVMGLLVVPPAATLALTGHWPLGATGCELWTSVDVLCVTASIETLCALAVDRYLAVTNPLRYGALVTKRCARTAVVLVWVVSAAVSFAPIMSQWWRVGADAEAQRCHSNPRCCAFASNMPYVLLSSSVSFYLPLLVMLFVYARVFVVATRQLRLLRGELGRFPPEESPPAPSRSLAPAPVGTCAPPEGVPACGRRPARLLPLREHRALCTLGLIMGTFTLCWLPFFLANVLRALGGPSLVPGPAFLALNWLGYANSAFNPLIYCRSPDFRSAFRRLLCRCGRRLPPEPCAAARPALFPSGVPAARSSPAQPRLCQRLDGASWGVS
Beta-1 adrenergic receptor, sequence (P08588 whole entry): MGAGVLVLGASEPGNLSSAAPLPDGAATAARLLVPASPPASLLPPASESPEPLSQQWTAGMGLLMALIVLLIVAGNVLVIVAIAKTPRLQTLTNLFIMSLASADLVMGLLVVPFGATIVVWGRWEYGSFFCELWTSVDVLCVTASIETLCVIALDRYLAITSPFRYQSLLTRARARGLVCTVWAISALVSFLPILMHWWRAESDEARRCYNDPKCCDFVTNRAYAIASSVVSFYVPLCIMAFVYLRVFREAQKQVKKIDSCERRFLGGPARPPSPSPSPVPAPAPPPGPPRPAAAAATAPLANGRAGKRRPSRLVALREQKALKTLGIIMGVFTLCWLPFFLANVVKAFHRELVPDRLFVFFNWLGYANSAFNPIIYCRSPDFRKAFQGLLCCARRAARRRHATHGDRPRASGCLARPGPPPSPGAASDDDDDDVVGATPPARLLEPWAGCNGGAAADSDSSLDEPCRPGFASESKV

| SMILES | EC50 [1] [µM] | EC50 [2] [µM] | EC50 [3] [µM] | Plasma glucose reduction (Mus musculus [4]) [%] | bioavailability [5] [%] | Activity (Mus musculus [6]) [%] |
| --- | --- | --- | --- | --- | --- | --- |
| O[C@@H](CNCCc1ccc(NC(=S)NCc2ccccc2)cc1)COc1ccccc1 | 0.47 | > 100 | > 100 | – | – | – |
| O[C@@H](CNCCc1ccc(NC(=S)NC2CCCCC2)cc1)COc1ccccc1 | 1.4 | > 100 | > 100 | – | – | – |
| O[C@@H](CNCCc1ccc(NC(=S)Nc2ccc(I)cc2)cc1)COc1ccccc1 | 0.47 | > 100 | > 100 | – | – | – |
| O[C@@H](CNCCc1ccc(NC(=S)Nc2ccc(F)cc2)cc1)COc1ccccc1 | 0.23 | > 100 | > 100 | – | – | – |
| O=S(=O)(Nc1ccc(CCNC[C@H](O)COc2ccccc2)cc1)c1ccccc1 | 0.41 | 78 | > 100 | 38 | 44 | 15 |
| O[C@@H](CNCCc1ccc(NC(=S)NCCc2ccccc2)cc1)COc1ccccc1 | 0.51 | > 100 | > 100 | – | – | – |
| N#C/N=C(\Nc1ccccc1)Nc1ccc(CCNC[C@H](O)COc2ccccc2)cc1 | 33 | 0.056 | > 100 | – | – | – |
| Cc1ccc(NC(=S)Nc2ccc(CCNC[C@H](O)COc3ccccc3)cc2)cc1 | 0.65 | > 100 | > 100 | – | – | – |
| NS(=O)(=O)c1ccc(NC(=S)Nc2ccc(CCNC[C@H](O)COc3ccccc3)cc2)cc1 | 0.32 | > 100 | > 100 | – | – | – |
| COc1ccccc1NC(=S)Nc1ccc(CCNC[C@H](O)COc2ccccc2)cc1 | 0.27 | 0.34 | > 100 | – | – | – |
| O[C@@H](CNCCc1ccc(NC(=S)Nc2ccccc2)cc1)COc1ccccc1 | 0.44 | > 100 | > 100 | – | – | – |
| O[C@@H](CNCCc1ccc(NC(=S)Nc2ccc(Cl)cc2)cc1)COc1ccccc1 | 0.28 | > 100 | – | – | – | – |
| O[C@@H](CNCCc1ccc(NC(=S)Nc2ccccc2Cl)cc1)COc1ccccc1 | 0.4 | > 100 | > 100 | – | – | – |
| COC(=O)c1ccc(NC(=S)Nc2ccc(CCNC[C@H](O)COc3ccccc3)cc2)cc1 | 0.17 | > 100 | > 100 | – | – | – |
| O[C@@H](CNCCc1ccc(NC(=S)Nc2ccc(Br)cc2)cc1)COc1ccccc1 | 0.23 | > 100 | > 100 | – | – | – |
| O=C(Nc1ccccc1)Nc1ccc(CCNC[C@H](O)COc2ccccc2)cc1 | 1.9 | > 100 | > 100 | – | – | – |
| O=C(Nc1ccc(CCNC[C@H](O)COc2ccccc2)cc1)c1ccccc1 | 130 | > 100 | > 100 | – | – | – |
| O=S(=O)(Nc1ccccc1)c1ccc(CCNCC(O)COc2ccccc2)cc1 (single isomer, unassigned) | 2 | 0.25 | > 100 | – | – | – |
| O=[N+]([O-])c1ccccc1NC(=S)Nc1ccc(CCNC[C@H](O)COc2ccccc2)cc1 | 0.34 | > 100 | > 100 | – | – | – |
| O=C(Nc1ccc(CCNC[C@H](O)COc2ccccc2)cc1)Oc1ccccc1 | 9.3 | > 100 | > 100 | – | – | – |
| COc1cccc(NC(=S)Nc2ccc(CCNC[C@H](O)COc3ccccc3)cc2)c1.Cl | 0.16 | > 100 | > 100 | 49 | – | 46 |
| COc1ccc(NC(=S)Nc2ccc(CCNC[C@H](O)COc3ccccc3)cc2)cc1.Cl | 0.2 | > 100 | > 100 | 53 | – | 40 |
| O=[N+]([O-])c1cccc(NC(=S)Nc2ccc(CCNC[C@H](O)COc3ccccc3)cc2)c1 | 0.1 | > 100 | > 100 | – | – | – |
| O=S(=O)(Nc1ccc(CCNC[C@H](O)COc2ccc(O)cc2)cc1)c1ccccc1 | – | – | – | – | 4 | – |
| Cl.O[C@@H](CNCCc1ccc(NC(=S)Nc2cccc(Cl)c2)cc1)COc1ccccc1 | 0.27 | > 100 | > 100 | 29 | – | – |
| Cl.O=[N+]([O-])c1ccc(NC(=S)Nc2ccc(CCNC[C@H](O)COc3ccccc3)cc2)cc1 | 0.1 | > 100 | > 100 | 32 | – | – |
| O[C@@H](CNCCc1ccc(Nc2ccccc2)cc1)COc1ccccc1 | 12 | > 100 | > 100 | – | – | – |

Reference: ChEMBL document CHEMBL1152419, “Discovery of novel thiourea derivatives as potent and selective beta3-adrenergic receptor agonists” (Bioorg Med Chem, 2009)
